Experimental data reported in US7776862B2, “Pyridyl and phenyl substituted piperazine-piperidines with CXCR3 antagonist activity” (Schering Corporation, priority 2005, dated 2010).
pIC50: −log10 of the molar value.

These compounds were tested against T1, human CXCR3 (N-delta 4) (Homo sapiens, UniProt P49682) (assay: Human CXCR3 (N-delta 4) scintillation proximity assay (SPA), [125I] IP-10 binding). Settings: IC50 rating; Ba/F3-hCXCR3 (N-delta 4) membranes, 25 pM [125I] IP-10.
T1 construct: CD8 leader; Flag tag; expressed in transfected cells; membranes used
T1 sequence (P49682 5-368 limits assumed): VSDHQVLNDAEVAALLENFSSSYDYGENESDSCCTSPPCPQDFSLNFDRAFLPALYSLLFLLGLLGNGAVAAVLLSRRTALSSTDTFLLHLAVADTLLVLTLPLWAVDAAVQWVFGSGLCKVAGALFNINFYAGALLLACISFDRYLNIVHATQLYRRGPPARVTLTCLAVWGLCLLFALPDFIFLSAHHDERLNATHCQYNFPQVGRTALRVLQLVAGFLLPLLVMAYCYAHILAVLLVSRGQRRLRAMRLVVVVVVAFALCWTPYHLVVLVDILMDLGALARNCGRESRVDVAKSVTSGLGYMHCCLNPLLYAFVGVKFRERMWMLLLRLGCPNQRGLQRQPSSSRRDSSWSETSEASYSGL
Procedure, shortened: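 Membranes from mouse Ba/F3 pro-B cells stably expressing Flag-tagged human CXCR3 (N-delta 4) were coupled to SPA beads. IP-10 was added together with titrated compounds to start the reaction, and bound radioligand was read by scintillation proximity.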

SMILES	pIC50
O=C(NCc1ccc(Cl)c(Cl)c1)c1cnc(N2CCN(C3CCN(Cc4ccc(Br)cc4)CC3)CC2)c(Cl)c1 [compound 289]	7.00 to 7.60
O=C(NCCOc1ccccc1)c1cnc(N2CCN(C3CCN(Cc4ccc(Br)cc4)CC3)CC2)c(Br)c1 [compound 290]	7.00 to 7.60
C[C@H]1CN(c2ncc(C(=O)NCc3ccc(F)c(F)c3)cc2Cl)CCN1C1CCN(C(=O)c2ccc(C#N)cc2)CC1 [compound 291]	7.00 to 7.60
CNC(=O)c1cnc(N2CCN(C3CCN(C(=N)c4ccc(Cl)cc4)CC3)[C@@H](C)C2)c(Cl)c1 [compound 292]	7.00 to 7.60
O=C(NCc1ccc(Br)cc1)c1cnc(N2CCN(C3CCN(Cc4ccc(Cl)c(F)c4)CC3)CC2)c(Cl)c1 [compound 293]	7.00 to 7.60
CCNC(=O)c1cnc(N2CCN(C3CCN([C@@H](C)c4ccc(Cl)cc4)CC3)[C@@H](C)C2)c(Cl)c1 [compound 294]	7.00 to 7.60
CC[C@H]1CN(c2ncc(C(=O)NC)cc2Cl)CCN1C1CCN(Cc2ccccc2F)CC1 [compound 295]	7.00 to 7.60
O=C(NCc1cccc(F)c1)c1cnc(N2CCN(C3CCN(Cc4ccc(Cl)c(F)c4)CC3)CC2)c(Cl)c1 [compound 296]	7.00 to 7.60
O=C(NCc1ccc(F)cc1)c1cnc(N2CCN(C3CCN(Cc4ccc(Cl)cc4)CC3)CC2)c(Cl)c1 [compound 297]	7.00 to 7.60
N#Cc1ccc(C(=O)N2CCC(N3CCN(c4ncc(C(=O)NCc5ccc(F)c(F)c5)cc4Br)CC3)CC2)cc1 [compound 298]	7.00 to 7.60
CNC(=O)c1cnc(N2CCN(C3CCN(Cc4ccc(F)cc4Cl)CC3)[C@@H](C)C2)c(Cl)c1 [compound 299]	7.00 to 7.60
C[C@@H]1CN(c2ncc(C(=O)NCC3CCCCC3)cc2Cl)CCN1C1CCN(Cc2ccc(C#N)cc2)CC1 [compound 300]	7.00 to 7.60
CNC(=O)c1cnc(N2CCN(C3CCN(Cc4ccc(C(F)(F)F)cc4)CC3)[C@@H](C)C2)c(Cl)c1 [compound 301]	7.00 to 7.60
CNC(=O)c1cnc(N2CCN(C3CCN(Cc4ccc(Cl)cc4)CC3C)CC2)c(Cl)c1 (stereo not shown) [compound 302]	7.00 to 7.60
CC[C@H]1CN(c2ncc(C(=O)NC)cc2Cl)CCN1C1CCN(C(=O)c2ccc(C#N)cc2)CC1 [compound 303]	7.00 to 7.60
COc1ccc(CN2CCC(N3CCN(c4ncc(C(=O)NCCOc5ccccc5)cc4Br)CC3)CC2)cc1 [compound 304]	7.00 to 7.60
O=C(NCc1ccc(C(F)(F)F)cc1)c1cnc(N2CCN(C3CCN(Cc4ccc(Cl)cc4)CC3)CC2)c(Br)c1 [compound 305]	7.00 to 7.60
CC[C@H]1CN(c2ncc(C(=O)NCCN)cc2Cl)CCN1C1CCN(Cc2ccc(Cl)cc2F)CC1 [compound 306]	7.00 to 7.60

SMILES	pIC50
C[C@H]1CN(c2ncc(C(=O)NCc3ccc(F)c(F)c3)cc2Cl)CCN1C1CCN(C(=O)c2ccc(Cl)cc2)CC1 [compound 307]	7.00 to 7.60
O=C(NCc1ccc(Br)cc1)c1cnc(N2CCN(C3CCN(Cc4ccc(Br)cc4)CC3)CC2)c(Cl)c1 [compound 308]	7.00 to 7.60
CCNC(=O)c1cnc(N2CCN(C3CCN(C(=O)c4ccc(Cl)cc4)CC3)C(CC(F)(F)F)C2)c(Cl)c1 (stereo not shown) [compound 309]	7.00 to 7.60
Cc1cc(NC(=O)c2cnc(N3CCN(C4CCN(Cc5ccc(Cl)cc5)CC4)[C@@H](C)C3)c(Cl)c2)no1 [compound 310]	7.00 to 7.60
C[C@H]1CN(c2ncc(C(=O)NCc3ccc(F)c(F)c3)cc2Cl)CCN1C1CCN(CCOc2ccc(Cl)cc2)CC1 [compound 311]	7.00 to 7.60
C[C@H]1CN(c2ncc(C(=O)Nc3cc[nH]n3)cc2Cl)CCN1C1CCN(Cc2ccc(Cl)cc2)CC1 [compound 312]	7.00 to 7.60
N#Cc1ccc(CN2CCC(N3CCN(c4ncc(C(=O)NCCOc5ccccc5)cc4Br)CC3)CC2)cc1 [compound 314]	7.00 to 7.60
CC[C@H]1CN(c2cc(N)c(C(N)=O)cc2Cl)CCN1C1CCN(Cc2ccc(Cl)cc2F)CC1 [compound 315]	7.00 to 7.60
CC[C@H]1CN(c2ncc(C(=O)NC)c(N)c2Cl)CCN1C1CCN(Cc2ccc(Cl)cc2F)CC1 [compound 316]	7.00 to 7.60
N#Cc1ccc(CN2CCC(N3CCN(c4ncc(C(=O)NCc5ccc(Cl)c(Cl)c5)cc4Cl)CC3)CC2)cc1 [compound 317]	7.00 to 7.60
CC[C@H]1CN(c2ncc(C(=O)NC3CC3)cc2Cl)CCN1C1CCN(Cc2ccc(F)cc2C(F)(F)F)CC1 [compound 318]	7.00 to 7.60
C[C@H]1CN(c2ncc(C(=O)NCc3ccc(Cl)c(Cl)c3)cc2Cl)CCN1C1CCN(C(=O)c2ccc(C#N)cc2)CC1 [compound 319]	7.00 to 7.60
CNC(=O)c1cnc(N2CCN(C3CCN(Cc4ccc(C)cc4)CC3)[C@@H](C)C2)c(Cl)c1 [compound 320]	7.00 to 7.60
N#Cc1ccc(CN2CCC(N3CCN(c4ncc(C(=O)NCc5ccc(F)cc5)cc4Cl)CC3)CC2)cc1 [compound 321]	7.00 to 7.60
COc1ccc(CN2CCC(N3CCN(c4ncc(C(=O)NCc5ccc(C(F)(F)F)cc5)cc4Br)CC3)CC2)cc1 [compound 322]	7.00 to 7.60
O=C(NCCOc1ccccc1)c1cnc(N2CCN(C3CCN(Cc4ccc(Cl)cc4)CC3)CC2)c(Cl)c1 [compound 323]	7.00 to 7.60
N#Cc1ccc(CN2CCC(N3CCN(c4ncc(C(=O)NCc5ccc(C(F)(F)F)cc5)cc4Br)CC3)CC2)cc1 [compound 324]	7.00 to 7.60
O=C(NCc1ccc(C(F)(F)F)cc1)c1cnc(N2CCN(C3CCN(Cc4ccc(Br)cc4)CC3)CC2)c(Br)c1 [compound 325]	< 7.00

The next lines start with the values.

pIC50	SMILES
< 7.00	CCNC(=O)c1cnc(N2CCN(C3CCN(C(C)(C)c4ccc(Cl)cc4)CC3)[C@@H](C)C2)c(Cl)c1 [compound 326]
< 7.00	C[C@H]1CN(c2ncc(C(=O)NCc3ccc(F)c(F)c3)cc2Cl)CCN1C1CCN(CCC(=O)c2ccc(Cl)cc2)CC1 [compound 327]
< 7.00	CNC(=O)c1cnc(N2CCN(C3CCN([C@@H](C)c4ccc(Cl)cc4)CC3)[C@@H](C)C2)c(Cl)c1 [compound 328]
< 7.00	N#Cc1ccc(C(=O)N2CCC(N3CCN(c4ncc(C(=O)NCCOc5ccccc5)cc4Br)CC3)CC2)cc1 [compound 329]
< 7.00	CCNC(=O)c1cnc(N2CCN(C3CCN([C@H](CC)c4ccc(Cl)cc4)CC3)[C@@H](C)C2)c(Cl)c1 [compound 330]
< 7.00	COc1ccc(CN2CCC(N3CCN(c4ncc(C(=O)NCCOc5ccccc5)cc4Cl)CC3)CC2)cc1 [compound 331]
< 7.00	CC[C@H]1CN(c2ncc(C(N)=O)cc2Cl)CCN1C1CCN(C(=O)c2ccc(Cl)cc2)CC1 [compound 332]
< 7.00	CNC(=O)c1cnc(N2CCN(C3CCN(Cc4ccc(Cl)nc4)CC3)[C@@H](C)C2)c(Cl)c1 [compound 333]
< 7.00	CNC(=O)c1cnc(N2CCN(C3CCN(Cc4cccc(C)c4)CC3)[C@@H](C)C2)c(Cl)c1 [compound 334]
< 7.00	C[C@H]1CN(c2ncc(C(=O)NCC3CCCCC3)cc2Cl)CCN1C1CCN(C(=O)c2ccc(C#N)cc2)CC1 [compound 335]
< 7.00	N#Cc1ccc(CN2CCC(N3CCN(c4ncc(C(=O)NCc5ccc(C(F)(F)F)cc5)cc4Cl)CC3)CC2)cc1 [compound 336]
< 7.00	CNC(=O)c1cnc(N2CCN(C3CCN(C(=O)c4ccc(Cl)cc4)CC3)[C@@H](C)C2)c(Cl)c1 [compound 337]
< 7.00	N#Cc1ccc(CN2CCC(N3CCN(c4ncc(C(=O)NCCOc5ccccc5)cc4Cl)CC3)CC2)cc1 [compound 338]
< 7.00	CCNC(=O)c1cnc(N2CCN(C3CCN(C(CC)c4ccc(Cl)cc4)CC3)[C@@H](C)C2)c(Cl)c1 (stereo partly shown) [compound 339]
< 7.00	CCOC(CNC(=O)c1cnc(N2CCN(C3CCN(Cc4ccc(Cl)cc4)CC3)[C@@H](C)C2)c(Cl)c1)OCC [compound 340]
< 7.00	CNC(=O)c1cnc(N2CCN(C3CCN(Cc4c(F)cc(F)cc4F)CC3)[C@@H](C)C2)c(Cl)c1 [compound 341]
< 7.00	CC[C@H]1CN(c2ncc(C(=O)NN)cc2Cl)CCN1C1CCN(C(=O)c2ccc(Br)cc2)CC1 [compound 342]
< 7.00	CC[C@H]1CN(c2ncc(C(=O)N(C)OC)cc2Cl)CCN1C1CCN(Cc2ccc(Cl)cc2F)CC1 [compound 343]
< 7.00	CCNC(=O)c1cnc(N2CCN(C3CCN([C@@H](CC)c4ccc(Cl)cc4)CC3)[C@@H](C)C2)c(Cl)c1 [compound 344]
< 7.00	COc1ccc(CNC(=O)c2cnc(N3CCN(C4CCN(Cc5ccc(C#N)cc5)CC4)CC3)c(Cl)c2)cc1 [compound 345]
< 7.00	O=C(NCc1ccc(F)c(F)c1)c1cnc(N2CCN(C3CCN(CCOc4ccc(F)cc4)CC3)CC2)c(Cl)c1 [compound 346]
< 7.00	CC[C@H]1CN(c2ncc(C(=O)NNC(N)=O)cc2Cl)CCN1C1CCN(Cc2ccc(Cl)cc2F)CC1 [compound 347]
< 7.00	C[C@H]1CN(c2ncc(C(=O)N3CCC3)cc2Cl)CCN1C1CCN(Cc2ccc(Cl)cc2)CC1 [compound 348]
< 7.00	CNC(=O)c1cnc(N2CCN(C3CCN(Cc4ccccc4Cl)CC3)[C@@H](C)C2)c(Cl)c1 [compound 349]
< 7.00	CC[C@H]1CN(c2ncc(C(=O)N=C(N)N)cc2Cl)CCN1C1CCN(Cc2ccc(Br)cc2F)CC1 [compound 350]
< 7.00	O=C(NCc1ccc(F)c(F)c1)c1cnc(N2CCN(C3CCN(C(=O)c4ccc(Cl)c(Cl)c4)CC3)CC2)c(Cl)c1 [compound 351]
< 7.00	CNC(=O)c1cnc(N2C[C@H](C)N(C3CCN(Cc4ccc(Cl)cc4F)CC3)C[C@H]2C)c(Cl)c1 [compound 352]
< 7.00	O=C(Nc1ccc(Cl)cn1)c1cnc(N2CCN(C3CCN(Cc4ccc(Cl)cc4)CC3)CC2)c(Cl)c1 [compound 353]
